Reference: patent publication US10696726B2, “Insulin-incretin conjugates” (INDIANA UNIVERSITY RESEARCH AND TECHNOLOGY CORPORATION, priority 2013, dated 2020)
Where “and” joins values, the source holds several entries; their conditions need not be identical. Equal entries are not always repeated.

Columns and labels:
insulin receptor [1] = target: T1, insulin receptor (Homo sapiens, UniProt P06213); assay: Insulin receptor binding assay (competition, scintillation proximity); conditions: for Ratio: Table 3, IGF-1 receptor IC50 over insulin receptor IC50
human IGF-1 receptor = human IGF-1 receptor (Homo sapiens, UniProt P08069); assay: IGF-1 receptor binding assay (competition, scintillation proximity); conditions: Table 3, relative to IGF-1 in the same test
Sequence of human IGF-1 receptor (P08069 31-736 limits assumed): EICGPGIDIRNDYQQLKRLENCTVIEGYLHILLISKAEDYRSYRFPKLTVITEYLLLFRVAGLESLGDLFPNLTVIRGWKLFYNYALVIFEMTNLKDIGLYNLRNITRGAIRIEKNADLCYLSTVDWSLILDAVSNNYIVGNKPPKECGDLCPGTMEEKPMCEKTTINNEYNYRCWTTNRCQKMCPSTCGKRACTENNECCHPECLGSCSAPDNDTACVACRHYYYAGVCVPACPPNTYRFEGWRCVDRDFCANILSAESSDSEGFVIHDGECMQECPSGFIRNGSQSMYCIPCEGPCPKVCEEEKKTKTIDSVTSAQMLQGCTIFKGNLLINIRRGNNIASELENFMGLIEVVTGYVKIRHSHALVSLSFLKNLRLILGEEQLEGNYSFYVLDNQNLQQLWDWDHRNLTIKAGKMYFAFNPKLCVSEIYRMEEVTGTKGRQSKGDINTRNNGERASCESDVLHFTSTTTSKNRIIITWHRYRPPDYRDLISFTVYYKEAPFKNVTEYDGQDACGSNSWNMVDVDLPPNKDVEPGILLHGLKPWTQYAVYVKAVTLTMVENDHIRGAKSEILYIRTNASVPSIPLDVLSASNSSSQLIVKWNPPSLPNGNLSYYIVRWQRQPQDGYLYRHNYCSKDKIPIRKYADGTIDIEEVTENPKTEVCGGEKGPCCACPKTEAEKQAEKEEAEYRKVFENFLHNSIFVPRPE
Sequence of human IGF-1 receptor (P08069 741-1367 partner limits assumed): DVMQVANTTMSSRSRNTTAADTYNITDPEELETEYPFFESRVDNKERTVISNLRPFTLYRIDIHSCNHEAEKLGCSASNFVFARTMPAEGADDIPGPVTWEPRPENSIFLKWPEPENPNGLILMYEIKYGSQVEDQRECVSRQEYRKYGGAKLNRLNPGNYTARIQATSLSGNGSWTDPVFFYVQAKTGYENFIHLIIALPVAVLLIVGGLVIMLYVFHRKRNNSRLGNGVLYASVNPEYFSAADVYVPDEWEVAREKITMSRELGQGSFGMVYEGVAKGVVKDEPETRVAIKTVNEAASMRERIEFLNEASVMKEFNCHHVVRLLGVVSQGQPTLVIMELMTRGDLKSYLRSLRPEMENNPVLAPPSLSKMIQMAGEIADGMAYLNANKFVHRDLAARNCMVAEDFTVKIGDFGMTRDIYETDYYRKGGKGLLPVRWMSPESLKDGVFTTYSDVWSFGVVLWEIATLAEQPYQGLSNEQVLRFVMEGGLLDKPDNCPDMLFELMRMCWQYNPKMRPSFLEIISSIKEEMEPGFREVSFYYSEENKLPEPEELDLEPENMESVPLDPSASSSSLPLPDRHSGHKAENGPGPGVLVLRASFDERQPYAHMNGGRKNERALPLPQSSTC

glucagon receptor = target: T2, glucagon receptor (Homo sapiens, UniProt P47871); assay: Glucagon functional assay, cAMP synthesis (luciferase reporter, HEK293 cells); type: cell-based; conditions: FIG. 12
T2 construct: expressed in transfected cells; host or cells: HEK293

insulin receptor [2] = target: T1, insulin receptor; assay: Insulin receptor phosphorylation assay in receptor transfected HEK293 cells; type: cell-based; design: expressed in transfected cells; host or cells: HEK293; conditions: FIGS. 10 and 11

Question: For `CC[C@H](C)[C@H](NC(=O)CN)C(=O)N[C@H](C(=O)N[C@@H](CC(=O)O)C(=O)N[C@@H](CCC(=O)O)C(=O)N[C@H]1CSSC[C@@H]2NC(=O)[C@H](CO)NC(=O)[C@H](CCCNC(=N)N)NC(=O)[C@H](Cc3ccccc3)NC(=O)[C@H](CSSC[C@H](NC(=O)[C@H](CC(C)C)NC(=O)[C@@H](NC(=O)[C@H](CCC(=O)O)NC(=O)[C@@H]3CCCN3C(=O)CN)[C@@H](C)O)C(=O)NCC(=O)N[C@@H](CO)C(=O)N[C@@H](Cc3c[nH]cn3)C(=O)N[C@@H](CC(C)C)C(=O)N[C@@H](C(C)C)C(=O)N[C@@H](CCC(=O)O)C(=O)N[C@@H](C)C(=O)N[C@@H](CC(C)C)C(=O)N[C@@H](Cc3ccc(O)cc3)C(=O)N[C@@H](CC(C)C)C(=O)N[C@@H](C(C)C)C(=O)N[C@H](C(=O)NCC(=O)N[C@@H](CC(=O)O)C(=O)N[C@@H](CCCNC(=N)N)C(=O)NCC(=O)N[C@@H](Cc3ccccc3)C(=O)N[C@@H](Cc3ccc(O)cc3)C(=O)N[C@@H](Cc3ccccc3)C(=O)N[C@@H](CC(N)=O)C(=O)N[C@@H](CCCCN)C(=O)N3CCC[C@H]3C(=O)N[C@H](C(N)=O)[C@@H](C)O)CSSC[C@@H](C(=O)N[C@@H](C)C(N)=O)NC(=O)[C@H](Cc3ccc(O)cc3)NC(=O)[C@H](CCSC)NC(=O)[C@H](CCC(=O)O)NC(=O)[C@H](CC(C)C)NC(=O)[C@H](CCCNC(=N)N)NC(=O)[C@H](CCCNC(=N)N)NC(=O)[C@H](CC(C)C)NC(=O)[C@H](CC(=O)O)NC2=O)NC1=O)C(C)C`, which Ratio (insulin receptor [1]) is on record?
Answer: The Ratio was 82.6.

Question: What does the source list for `CC[C@H](C)[C@H](NC(=O)CN)C(=O)N[C@H](C(=O)N[C@@H](CC(=O)O)C(=O)N[C@@H](CCC(=O)O)C(=O)N[C@H]1CSSC[C@@H]2NC(=O)[C@H](CO)NC(=O)[C@H](CCCNC(=N)N)NC(=O)[C@H](Cc3ccccc3)NC(=O)[C@H](CSSC[C@H](NC(=O)[C@H](CC(C)C)NC(=O)[C@@H](NC(=O)[C@H](CCC(=O)O)NC(=O)[C@@H]3CCCN3C(=O)CN)[C@@H](C)O)C(=O)NCC(=O)N[C@@H](C)C(=O)N[C@@H](CCC(=O)O)C(=O)N[C@@H](CC(C)C)C(=O)N[C@@H](C(C)C)C(=O)N[C@@H](CC(=O)O)C(=O)N[C@@H](C)C(=O)N[C@@H](CC(C)C)C(=O)N[C@@H](Cc3ccc(O)cc3)C(=O)N[C@@H](CC(C)C)C(=O)N[C@@H](C(C)C)C(=O)N[C@H](C(=O)NCC(=O)N[C@@H](CC(=O)O)C(=O)N[C@@H](CCCNC(=N)N)C(=O)NCC(=O)N[C@@H](Cc3ccccc3)C(=O)N[C@@H](Cc3ccc(O)cc3)C(=O)N[C@@H](Cc3ccccc3)C(=O)N[C@@H](CC(N)=O)C(=O)N[C@@H](CCCCN)C(=O)N3CCC[C@H]3C(=O)N[C@H](C(N)=O)[C@@H](C)O)CSSC[C@@H](C(=O)N[C@@H](C)C(N)=O)NC(=O)[C@H](Cc3ccc(O)cc3)NC(=O)[C@H](CCSC)NC(=O)[C@H](CCC(=O)O)NC(=O)[C@H](CC(C)C)NC(=O)[C@H](CCCNC(=N)N)NC(=O)[C@H](CCCNC(=N)N)NC(=O)[C@H](CC(C)C)NC(=O)[C@H](CC(=O)O)NC2=O)NC1=O)C(C)C` [IGF1 (Y^B16L^B17)]?
Answer: insulin receptor binding relative to native insulin (in words) (insulin receptor [1]; FIGS. 2-4, Tables 1 and 2): highly potent agonists of the insulin receptor; % of Insulin Activity (insulin receptor [1]; Table 2, relative to Insulin Standard): 262%

Question: With `CC[C@H](C)[C@H](NC(=O)CN)C(=O)N[C@H](C(=O)N[C@@H](CC(=O)O)C(=O)N[C@@H](CCC(=O)O)C(=O)N[C@H]1CSSC[C@@H]2NC(=O)[C@H](CO)NC(=O)[C@H](CCCNC(=N)N)NC(=O)[C@H](Cc3ccccc3)NC(=O)[C@H](CSSC[C@H](NC(=O)[C@H](CC(C)C)NC(=O)[C@H](Cc3c[nH]cn3)NC(=O)[C@H](CCC(N)=O)NC(=O)[C@H](CC(N)=O)NC(=O)[C@@H](NC(=O)[C@@H](N)Cc3ccccc3)C(C)C)C(=O)NCC(=O)N[C@@H](CO)C(=O)N[C@@H](Cc3c[nH]cn3)C(=O)N[C@@H](CC(C)C)C(=O)N[C@@H](C(C)C)C(=O)N[C@@H](CCC(=O)O)C(=O)N[C@@H](C)C(=O)N[C@@H](CC(C)C)C(=O)N[C@@H](Cc3ccc(O)cc3)C(=O)N[C@@H](CC(C)C)C(=O)N[C@@H](C(C)C)C(=O)N[C@H](C(=O)NCC(=O)N[C@@H](CC(=O)O)C(=O)N[C@@H](CCCNC(=N)N)C(=O)NCC(=O)N[C@@H](Cc3ccccc3)C(=O)N[C@@H](Cc3ccc(O)cc3)C(=O)N[C@@H](Cc3ccccc3)C(=O)N[C@@H](CC(N)=O)C(=O)N[C@@H](CCCCN)C(=O)N3CCC[C@H]3C(=O)N[C@H](C(N)=O)[C@@H](C)O)CSSC[C@@H](C(=O)N[C@@H](C)C(N)=O)NC(=O)[C@H](Cc3ccc(O)cc3)NC(=O)[C@H](CCSC)NC(=O)[C@H](CCC(=O)O)NC(=O)[C@H](CC(C)C)NC(=O)[C@H](CCCNC(=N)N)NC(=O)[C@H](CCCNC(=N)N)NC(=O)[C@H](CC(C)C)NC(=O)[C@H](CC(=O)O)NC2=O)NC1=O)C(C)C` [IGF-1 A: In (1-17)-IGF-1 B (18-30)] as the molecule, how does the Ratio (insulin receptor [1]) read?
Answer: The Ratio was 22.6.

Question: And the “Insulin Receptor % insulin (in test)” value (insulin receptor [1]; Table 3, relative to insulin in the same test)?
Answer: Its value is 14.0% and 11.3% and 20.1%.

Question: And the “Insulin Receptor % native insulin activity (0.6 nM)” value (insulin receptor [1]; Table 3, relative to native insulin taken as 0.6 nM)?
Answer: The value was 21.7% and 22.5% and 24.2%.

Question: What about the “IGF-1 Receptor % IGF-1 (in test)” value (human IGF-1 receptor) of the same molecule?
Answer: Its value is 0.9%.

Question: With “GLP-1: native GLP-1: GLP-1(7-36) amide SEQ ID NO: 703 or GLP-1(7-37) acid SEQ ID NO: 704 [reference compound]” as the molecule, how does the “in vitro glucagon receptor activity (EC50 values, in words)” value (glucagon receptor) read?
Answer: The value was “poor activity at the glucagon receptor”.

Question: What about the “in vitro insulin receptor activity (EC50 values, in words)” value (insulin receptor [2]) of the same molecule?
Answer: The value was “poor activity at the insulin receptor”.
